Tests used:
Type in all cases: physicochemical
[1] = Solubility of dye in binder resin composition (polyvinyl butyral / methyl ethyl ketone), precipitation after a day at 15° C.; conditions: binder resin composition: polyvinyl butyral resin (Esrex BX-1) 100 mg, methyl ethyl ketone 3.0 ml; stood a day at 15° C. shielded from light
Method: Mixing the following raw materials, a binder resin composition containing the photo-decoloring dye was prepared so as to obtain sample 3-1.
Photo-decoloring dye 7 0.3 mmol
Polyvinyl butyral resin (Esrex BX-1)
Methyl ethyl ketone 3.0 ml
Samples 3-2 to 3-12 were obtained in the same way in which sample 3-1 was obtained except replacing the photo-decoloring dye 7 by the following dyes described later. Solubility was evaluated by varying addition amount of each dye. The dyes except for comparative dyes show the photo-decoloring dyes according to the invention. The chemical structures of the comparative dyes A and B (these dyes are used in example 5) are shown below.
After preparing binder resin compositions in which addition amount of the photo-decoloring dyes was increased in serial turn, said binder resin compositions were aloowed to stand under the condition of shielding a light for a day at 15° C. When slight precipitation of the photo-decoloring dyes in said binder resin compositions was observed, the solubility of said photo-decoloring dyes was evaluated as unacceptable.
The solubility of the photo-decoloring dyes was evaluated based on the following criteria in response to the addition amount of said photo-decoloring dyes.
4: Precipitation was not observed in an addition amount of not less than 0.9 mmol.

[2] = Storage stability of photo-recording material (60° C., 200 hours, light-shielded); conditions: (density after storage/initial density)×100, packed with black paper
From the text: The binder resin composition containing the photo-decoloring dye used for making sample 3-1 was coated on a polyethylenenaphthalate base having thickness of 4.0 μm by using a wire bar in a coating amount of 2.5 g/m^2 after drying so as to obtain a photo-recording material consisting of a photo-decoloring layer on the polyethylenenaphthalate film. On a back side of said polyethylenenaphthalate base was coated a nitrocellulose layer containing a silicone modified urethane resin (SP-2105, produced by Dainichiseika Co., Ltd.) as a sticking-preventing layer. Thus obtained sample is termed sample 4-1.
By replacing the photo-decoloring dye 7 used in sample 4-1 by such photo-decoloring dyes as described later, sample 4-2 to 4-16 were obtained. Both photo-decoloring ability and storage stability of these dyes were evaluated.
Photo-shielded samples by packing them with black paper were allowed to stand at 60° C. in a thermostatic oven for 200 hours. Storage stability was indicated as follows.
Storage stability=(density after storage/initial density)×100 (%)

[3] = Absorption maximum and absorption coefficient in ethyl acetate

Compound	Storage stability [2]	εmax [3]	λmax [3]	Solubility [1]
CCCCc1nnc2n1N=C(C(C)(C)C)C2=Nc1ccc(O)cc1 [A]	18%			2 (Slight precipitation was observed in an addition amount of not less than 0.3 to less than 0.6 mmol.)
CCCCc1nnc2c(=Cc3cc(Cl)c(O)c(Cl)c3)c(C(C)(C)C)nn12 [B]	20%			2 (Slight precipitation was observed in an addition amount of not less than 0.3 to less than 0.6 mmol.)
CCN(CC)c1ccc(N=C(C(C)=O)C(=O)Nc2ccccc2)c(C)c1 [C]	95%			
CCN(CC)c1ccc(N=C2C(=O)N(c3ccccc3)N=C2C)cc1 [D]	80%			
CCN(CC)c1ccc(N=C2C=CC(=O)c3ccccc32)cc1 [E]	85%			
CN1/C(=C\C=C\C2=[N+](C)c3ccccc3C2(C)C)C(C)(C)c2ccccc21 [F]	15%			
CCCCC(Oc1ccc(C(C)(C)CC)cc1C(C)(C)CC)C(=O)Nc1ccc2nc3n(c2c1)N=C(C)C3=Nc1cc(Cl)c(O)c(Cl)c1 (stereo not drawn) [compound 32]	90%			3 (Slight precipitation was observed in an addition amount of not less than 0.6 to less than 0.9 mmol.)
CCC(C)(C)c1ccc(OCC(=O)Nc2ccnc(-c3cnc4n3N=C(C(C)(C)C)C4=Nc3cc(Cl)c(O)c(Cl)c3)c2)c(C(C)(C)CC)c1 [compound 33]	77%			4 (Precipitation was not observed in an addition amount of not less than 0.9 mmol.)

More lines, main results first:

Storage stability [2]	εmax [3]	λmax [3]	Compound	Solubility [1]
88%	93700	556 nm	CCCCCCCCCCCCS(=O)(=O)CCCc1nnc2n1N=C(C(C)(C)C)C2=Nc1cc(Cl)c(O)c(Cl)c1 [compound 7]	4 (Precipitation was not observed in an addition amount of not less than 0.9 mmol.)
80%			CCC(Oc1ccc(C(C)(C)CC)cc1C(C)(C)CC)C(=O)NCCC(C)c1nnc2n1N=C(C(C)(C)C)C2=Nc1cc(Cl)c(O)c(Cl)c1 (stereo not drawn) [compound 11]	4 (Precipitation was not observed in an addition amount of not less than 0.9 mmol.)
75%			CCCCCCCCCCCCOc1ccc(S(=O)(=O)NCC(C)(C)c2nnc3n2N=C(C(C)(C)C)C3=Nc2cc(Cl)c(O)c(Cl)c2)cc1 [compound 13]	3 (Slight precipitation was observed in an addition amount of not less than 0.6 to less than 0.9 mmol.)
85%			CCCCCCCCCCCCC(Oc1ccc(OC(C)=O)c(C(C)(C)C)c1)C(=O)NCCc1nnc2n1N=C(C)C2=Nc1cc(Cl)c(O)c(Cl)c1 (stereo not drawn) [compound 17]	4 (Precipitation was not observed in an addition amount of not less than 0.9 mmol.)
82%			CCCCCCCCCCCCS(=O)(=O)NCCc1nc2c(=Cc3cc(Cl)c(O)c(Cl)c3)c(C(C)(C)C)nn2n1 [compound 47]	4 (Precipitation was not observed in an addition amount of not less than 0.9 mmol.)
80%	105300	540 nm	CCCCCCCCCCCCS(=O)(=O)CCCc1nnc2c(=Cc3cc(Cl)c(O)c(Cl)c3)c(C(C)(C)C)nn12 [compound 58]	4 (Precipitation was not observed in an addition amount of not less than 0.9 mmol.)
	94800	543 nm	CCCCCCCCCCCCS(=O)(=O)CCCc1nnc2c(=Cc3cc(Cl)c(O)c(Cl)c3)c(C(C)(C)C)nn12 [compound 78]	

From US6124078A, “Photo-decoloring dye, a binder resin composition containing the same and photo-recording material” (Konica Corporation, priority 1998, dated 2000)
